# PubChem BioAssay AID1918931 (Molecular Pharmacology Branch, DTP, NCI, 2023)
# Test system: 138582-337-R-J1-PDC complex spheroid viability
# Test: Anticancer human tumor 138582-337-R-J1-PDC patient-derived Merkel cell tumor cell line growth inhibition
# Conditions: for IC50: curve of first compound; for viability, T/C: stronger effect = lower value
# Summary of the method: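 Multicellular complex spheroids of tumor cells with human endothelial cells (HUVEC) and mesenchymal stem cells; the LSD1 inhibitor iadademstat was combined with standard-of-care or investigational agents. Top concentration at or near clinical Cmax, half-log dilutions; final DMSO ≤0.25%.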
# [1] = second compound 0.1 µM, first compound 0.000316 µM
# [2] = second compound 0.1 µM, first compound 0.001 µM
# [3] = second compound 0.1 µM, first compound 0.00316 µM
# [4] = second compound 0.1 µM, first compound 0.01 µM
# [5] = second compound 0.1 µM, first compound 0.0316 µM
# [6] = second compound 0.1 µM, first compound 0.1 µM
# [7] = second compound 0.316 µM, first compound 0.000316 µM
# [8] = second compound 0.316 µM, first compound 0.001 µM
# [9] = second compound 0.316 µM, first compound 0.00316 µM
# [10] = second compound 0.316 µM, first compound 0.01 µM
# [11] = second compound 0.316 µM, first compound 0.0316 µM
# [12] = second compound 0.316 µM, first compound 0.1 µM
# [13] = second compound 1 µM, first compound 0.000316 µM
# [14] = second compound 1 µM, first compound 0.001 µM
# [15] = second compound 1 µM, first compound 0.00316 µM
# [16] = second compound 1 µM, first compound 0.01 µM
# [17] = second compound 1 µM, first compound 0.0316 µM
# [18] = second compound 1 µM, first compound 0.1 µM
# [19] = second compound 3.16 µM, first compound 0.000316 µM
# [20] = second compound 3.16 µM, first compound 0.001 µM
# [21] = second compound 3.16 µM, first compound 0.00316 µM
# [22] = second compound 3.16 µM, first compound 0.01 µM
# [23] = second compound 3.16 µM, first compound 0.0316 µM
# [24] = second compound 3.16 µM, first compound 0.1 µM
# [25] = second compound 10 µM, first compound 0.000316 µM
# [26] = second compound 10 µM, first compound 0.001 µM
# [27] = second compound 10 µM, first compound 0.00316 µM
# [28] = second compound 10 µM, first compound 0.01 µM
# [29] = second compound 10 µM, first compound 0.0316 µM
# [30] = second compound 10 µM, first compound 0.1 µM
# 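Also: spheroids exposed to agents for 7 days.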
# 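For viability, T/C in this document: 100% = DMSO vehicle control viability.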
compound,measurement,setting,value
CC(C)CC(NC(=O)C(Cc1ccccc1)NC(=O)c1cnccn1)B(O)O (stereo not given) + NC1CC1c1ccc(-c2cccc(O)c2)cc1,IC50,second compound 0.1 µM,0.511 nM
same,IC50,second compound 0.316 µM,0.476 nM
same,IC50,second compound 1 µM,0.422 nM
same,IC50,second compound 3.16 µM,0.37 nM
same,IC50,second compound 10 µM,0.406 nM
same,"viability, T/C",[1],85.2%
same,"viability, T/C",[2],0.72%
same,"viability, T/C",[3],0.11%
same,"viability, T/C",[4],0.11%
same,"viability, T/C",[5],0.08%
same,"viability, T/C",[6],0.28%
same,"viability, T/C",[7],77%
same,"viability, T/C",[8],0.78%
same,"viability, T/C",[9],1.61%
same,"viability, T/C",[10],0.94%
same,"viability, T/C",[11],0.07%
same,"viability, T/C",[12],0.15%
same,"viability, T/C",[13],66%
same,"viability, T/C",[14],2.41%
same,"viability, T/C",[15],0.13%
same,"viability, T/C",[16],0.11%
same,"viability, T/C",[17],0.07%
same,"viability, T/C",[18],0.18%
same,"viability, T/C",[19],57.5%
same,"viability, T/C",[20],2.76%
same,"viability, T/C",[21],0.12%
same,"viability, T/C",[22],0.32%
same,"viability, T/C",[23],0.11%
same,"viability, T/C",[24],0.17%
same,"viability, T/C",[25],62.5%
same,"viability, T/C",[26],4.98%
same,"viability, T/C",[27],1.52%
same,"viability, T/C",[28],1.12%
same,"viability, T/C",[29],1.32%
same,"viability, T/C",[30],0.55%
CC(C)CC(NC(=O)CNC(=O)c1cc(Cl)ccc1Cl)B1OC(=O)CC(CC(=O)O)(C(=O)O)O1 (stereo not given) + NC1CC1c1ccc(-c2cccc(O)c2)cc1,IC50,second compound 0.1 µM,11.8 nM
same,IC50,second compound 0.316 µM,8.59 nM
same,IC50,second compound 1 µM,8.37 nM
same,IC50,second compound 3.16 µM,10.1 nM
same,IC50,second compound 10 µM,9.49 nM
same,"viability, T/C",[1],94.3%
same,"viability, T/C",[2],98.9%
same,"viability, T/C",[3],101%
same,"viability, T/C",[4],58.3%
same,"viability, T/C",[5],1.47%
same,"viability, T/C",[6],0.24%
same,"viability, T/C",[7],80.7%
same,"viability, T/C",[8],95%
same,"viability, T/C",[9],115%
same,"viability, T/C",[10],42.8%
same,"viability, T/C",[11],4.55%
same,"viability, T/C",[12],0.6%
same,"viability, T/C",[13],92.5%
same,"viability, T/C",[14],112%
same,"viability, T/C",[15],140%
same,"viability, T/C",[16],38.1%
same,"viability, T/C",[17],2.09%
same,"viability, T/C",[18],0.29%
same,"viability, T/C",[19],113%
same,"viability, T/C",[20],104%
same,"viability, T/C",[21],126%
same,"viability, T/C",[22],50.3%
same,"viability, T/C",[23],2.37%
same,"viability, T/C",[24],0.26%
same,"viability, T/C",[25],110%
same,"viability, T/C",[26],139%
same,"viability, T/C",[27],129%
same,"viability, T/C",[28],46.3%
same,"viability, T/C",[29],0.57%
same,"viability, T/C",[30],0.27%
Nc1ccccc1NC(=O)c1ccc(CNC(=O)OCc2cccnc2)cc1 + NC1CC1c1ccc(-c2cccc(O)c2)cc1,IC50,second compound 0.1 µM,324 nM
same,IC50,second compound 0.316 µM,355 nM
same,IC50,second compound 1 µM,390 nM
same,IC50,second compound 3.16 µM,310 nM
same,IC50,second compound 10 µM,262 nM
same,"viability, T/C","second compound 0.1 µM, first compound 0.00949 µM",86.8%
same,"viability, T/C","second compound 0.1 µM, first compound 0.03 µM",72.7%
same,"viability, T/C","second compound 0.1 µM, first compound 0.0949 µM",78.6%
same,"viability, T/C","second compound 0.1 µM, first compound 0.3 µM",53%
same,"viability, T/C","second compound 0.1 µM, first compound 0.949 µM",7.55%
same,"viability, T/C","second compound 0.1 µM, first compound 3 µM",0.52%
same,"viability, T/C","second compound 0.316 µM, first compound 0.00949 µM",71.1%
same,"viability, T/C","second compound 0.316 µM, first compound 0.03 µM",76.6%
same,"viability, T/C","second compound 0.316 µM, first compound 0.0949 µM",76.6%
same,"viability, T/C","second compound 0.316 µM, first compound 0.3 µM",57.4%
same,"viability, T/C","second compound 0.316 µM, first compound 0.949 µM",6.5%
same,"viability, T/C","second compound 0.316 µM, first compound 3 µM",0.75%
same,"viability, T/C","second compound 1 µM, first compound 0.00949 µM",72.1%
same,"viability, T/C","second compound 1 µM, first compound 0.03 µM",53%
same,"viability, T/C","second compound 1 µM, first compound 0.0949 µM",79.3%
same,"viability, T/C","second compound 1 µM, first compound 0.3 µM",62.6%
same,"viability, T/C","second compound 1 µM, first compound 0.949 µM",6.82%
same,"viability, T/C","second compound 1 µM, first compound 3 µM",0.31%
same,"viability, T/C","second compound 3.16 µM, first compound 0.00949 µM",74.5%
same,"viability, T/C","second compound 3.16 µM, first compound 0.03 µM",77%
same,"viability, T/C","second compound 3.16 µM, first compound 0.0949 µM",80.9%
same,"viability, T/C","second compound 3.16 µM, first compound 0.3 µM",50.8%
same,"viability, T/C","second compound 3.16 µM, first compound 0.949 µM",6.44%
same,"viability, T/C","second compound 3.16 µM, first compound 3 µM",0.64%
same,"viability, T/C","second compound 10 µM, first compound 0.00949 µM",79.8%
same,"viability, T/C","second compound 10 µM, first compound 0.03 µM",70.2%
same,"viability, T/C","second compound 10 µM, first compound 0.0949 µM",61.5%
same,"viability, T/C","second compound 10 µM, first compound 0.3 µM",50.1%
same,"viability, T/C","second compound 10 µM, first compound 0.949 µM",4.95%
same,"viability, T/C","second compound 10 µM, first compound 3 µM",0.46%
O=C(c1cc(Cc2n[nH]c(=O)c3ccccc23)ccc1F)N1CCN(C(=O)C2CC2)CC1 + NC1CC1c1ccc(-c2cccc(O)c2)cc1,IC50,second compound 0.1 µM,9080 nM
same,IC50,second compound 0.316 µM,5150 nM
same,IC50,second compound 1 µM,> 10000 nM
same,IC50,second compound 3.16 µM,> 10000 nM
same,IC50,second compound 10 µM,> 10000 nM
same,"viability, T/C",[5],72%
same,"viability, T/C",[6],74.9%
same,"viability, T/C","second compound 0.1 µM, first compound 0.316 µM",68.4%
same,"viability, T/C","second compound 0.1 µM, first compound 1 µM",68.5%
same,"viability, T/C","second compound 0.1 µM, first compound 3.16 µM",58.6%
same,"viability, T/C","second compound 0.1 µM, first compound 10 µM",49.5%
same,"viability, T/C",[11],68.6%
same,"viability, T/C",[12],73.7%
same,"viability, T/C","second compound 0.316 µM, first compound 0.316 µM",66.2%
same,"viability, T/C","second compound 0.316 µM, first compound 1 µM",57.6%
same,"viability, T/C","second compound 0.316 µM, first compound 3.16 µM",53.6%
same,"viability, T/C","second compound 0.316 µM, first compound 10 µM",45.7%
same,"viability, T/C",[17],76.5%
same,"viability, T/C",[18],77.3%
same,"viability, T/C","second compound 1 µM, first compound 0.316 µM",70.9%
same,"viability, T/C","second compound 1 µM, first compound 1 µM",64.8%
same,"viability, T/C","second compound 1 µM, first compound 3.16 µM",62.4%
same,"viability, T/C","second compound 1 µM, first compound 10 µM",57.4%
same,"viability, T/C",[23],78.8%
same,"viability, T/C",[24],79.8%
same,"viability, T/C","second compound 3.16 µM, first compound 0.316 µM",82.4%
same,"viability, T/C","second compound 3.16 µM, first compound 1 µM",70.7%
same,"viability, T/C","second compound 3.16 µM, first compound 3.16 µM",80%
same,"viability, T/C","second compound 3.16 µM, first compound 10 µM",60.6%
same,"viability, T/C",[29],81.5%
same,"viability, T/C",[30],81.1%
same,"viability, T/C","second compound 10 µM, first compound 0.316 µM",80.3%
same,"viability, T/C","second compound 10 µM, first compound 1 µM",93.3%
same,"viability, T/C","second compound 10 µM, first compound 3.16 µM",71.3%
same,"viability, T/C","second compound 10 µM, first compound 10 µM",87.1%
